Test results: ChEMBL document CHEMBL1122513, “Synthesis and antiviral activity of carbocyclic analogues of 2'-deoxyribofuranosides of 2-amino-6-substituted-purines and of 2-amino-6-substituted-8-azapurines” (J Med Chem, 1984)
Values after ≈ are worked out from the molar mass of the structure shown.

Test system: Vaccinia virus
Assay: Concentration required to inhibit vaccinia virus induced cytopathogenic affects by 50%
Format: functional, Orthopoxvirus vaccinia
[1] = Orthopoxvirus vaccinia, read-out: MIC50

| Compound | MIC50 [1] [µg/mL] | MIC50 [µg/mL] |
| --- | --- | --- |
| OCC1CC(n2cnc3c(O)ncnc32)C(O)C1O (stereo not given) | 191 (≈ 717 µM) | – |
| Nc1ccn([C@@H]2C[C@H](CO)[C@@H](O)[C@H]2O)c(=O)n1 (stereo in doubt; form 2) | 57 (≈ 236 µM) | – |
| OCC1CC(n2nnc3c(O)ncnc32)C(O)C1O (stereo not given) | 467 (≈ 1750 µM) | – |
| Nc1ncnc2c1ncn2[C@@H]1C[C@H](CO)[C@@H](O)[C@@H]1O | 9 (≈ 33.9 µM) | 9 (≈ 33.9 µM) |
